Reference: article PMC4307180, “Overcoming myelosuppression due to synthetic lethal toxicity for FLT3-targeted acute myeloid leukemia therapy” (eLife, 2014)
Entries after “also recorded” stand apart in the source; their conditions may differ.

Legend:
[1] = test system: Ba/F3 FLT3 ITD + F691L; test: Ba/F3 cell viability, FLT3 ITD + F691L; type: cell-based; conditions: Mus musculus, Ba/F3, 48 hr, ± SEM
Protocol: (§1) Stable Ba/F3 lines were generated by retroviral spinfection with the appropriate mutated plasmid as previously described ([Smith et al., 2012]).
(§2) Exponentially growing cells (5 × 10^3 cells per well) were plated in each well of a 96-well plate with 0.1 ml of RPMI 1640 + 10% (vol/vol) FCS containing the appropriate concentration of drug in triplicate, and cell viability was assessed after 48 hr as previously described ([Smith et al., 2012]). […] Log10-scale transformation of ratios, followed by conditional formatting using xcel spreadsheet software yielded the colored diagrams shown.
(§3) Mutations isolated in the screen were engineered into pMSCVpuroFLT3–ITD by QuikChange mutagenesis (Stratagene, La Jolla, CA) as previously described ([Smith et al., 2012]).

[2] = test system: FLT3/ITD-injected zebrafish embryos; test: Zebrafish FLT3/ITD-induced mpo+ myeloid cell expansion; type: in vivo, Danio rerio (zebrafish); conditions: 10 μM, 6 to 30 hpf, read at 30 hpf
Protocol: Figure 4. […] (N–P) Three categories of mpo transcription (N, normal; O, intermediate; P, severe) were defined based on the WISH results (three experiments). […] Scale bar equals 500 μm. Blue arrows indicate the pericardial edema, green arrows indicate tail shortening and curving, and red arrows indicate the FLT3-ITD AML mpo+ myeloid cells expansion. […] For all experiments: Zebrafish embryos were collected and kept in standard E3 medium at 28°C. Different concentrations of either drug were added to the E3 medium from 6 hr post fertilization (hpf) to 3 days post fertilization (dpf). Embryos treated with DMSO or 10 μM drug from 6 to 30 hpf were collected for mpo whole mount in situ hybridization (WISH) analysis. […] plasmid DNA containing FLT3/ITD sequence was microinjected into one-cell stage embryos, and the uninjected embryos were used as control. FLT3/ITD-injected embryos were treated with DMSO or 10 μM drug from 6 to 30 hpf.
Wild-type (WT) zebrafish were maintained under standard conditions, and embryos were staged as described ([He et al., 2014]). The study was approved by the Committee of the Use of Live Animals for Teaching and Research in The University of Hong Kong.

[3] = target: CSF1R (Homo sapiens, UniProt P07333); test: Reaction Biology Corp kinase assay at Km-ATP (Figure 1C), CSF1R
CSF1R, sequence (P07333 20-972): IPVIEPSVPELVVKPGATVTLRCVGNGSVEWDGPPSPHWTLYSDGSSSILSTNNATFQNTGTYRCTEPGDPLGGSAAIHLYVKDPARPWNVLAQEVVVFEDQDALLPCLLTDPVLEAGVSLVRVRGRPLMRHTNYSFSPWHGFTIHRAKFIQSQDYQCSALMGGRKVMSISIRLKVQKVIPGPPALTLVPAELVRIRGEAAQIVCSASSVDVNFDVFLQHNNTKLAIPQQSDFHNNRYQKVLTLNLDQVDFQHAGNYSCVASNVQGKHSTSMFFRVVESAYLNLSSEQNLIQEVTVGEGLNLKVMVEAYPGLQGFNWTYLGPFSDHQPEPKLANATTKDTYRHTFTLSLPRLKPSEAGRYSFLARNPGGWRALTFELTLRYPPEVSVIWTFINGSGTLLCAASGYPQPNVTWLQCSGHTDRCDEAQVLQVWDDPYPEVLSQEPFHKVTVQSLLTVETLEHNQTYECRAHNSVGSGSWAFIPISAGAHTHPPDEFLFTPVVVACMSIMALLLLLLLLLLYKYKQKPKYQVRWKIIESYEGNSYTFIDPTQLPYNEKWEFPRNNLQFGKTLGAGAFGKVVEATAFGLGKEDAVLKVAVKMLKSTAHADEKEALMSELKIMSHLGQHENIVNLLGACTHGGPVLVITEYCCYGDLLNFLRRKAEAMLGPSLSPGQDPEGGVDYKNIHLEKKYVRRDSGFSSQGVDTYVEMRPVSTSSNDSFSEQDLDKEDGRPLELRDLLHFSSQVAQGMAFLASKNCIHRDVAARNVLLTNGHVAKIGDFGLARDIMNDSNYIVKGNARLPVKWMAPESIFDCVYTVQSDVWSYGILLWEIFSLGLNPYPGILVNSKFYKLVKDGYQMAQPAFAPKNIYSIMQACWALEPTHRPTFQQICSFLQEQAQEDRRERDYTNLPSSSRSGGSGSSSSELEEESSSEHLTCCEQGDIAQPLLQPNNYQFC

[4] = test system: primary patient FLT3 D835 AML circulating blasts; test: Colony-forming assay, primary patient FLT3-D835 AML blasts; type: cell-based, human
Description: (§4) Primary AML blood samples and/or marrow aspirates were obtained on an IRB-approved protocol at the University of California, San Francisco. Informed consent was obtained in accordance with the Declaration of Helsinki. Mononuclear cells were purified by density centrifugation (Ficoll–Paque Plus, GE Healthsciences) before cryopreservation in 10% (vol/vol) DMSO or FCS (primary ITD and D835-mutant assays, Figure 3A–C) or immediate use in assays (Normal BM and SPB, Figure 3D–F). Normal BM and stimulated peripheral blood (SPB) samples were collected from donors at the UCSF oncology/hematology division. Cells were then suspended in MethoCult methylcellulose (Stem Cell Technologies, product no. H4435 Enriched, Canada) in 15-ml Falcon tubes, vigorously vortexed, bubbles settled over 10 min. Triplicates then plated via blunt-nosed syringe (1.1 ml each) into 3-cm dishes, avoiding bubble generation, and each dish placed in a larger 10-cm dish with water trough in an incubator (37°C, 5% CO2) for 13–14 days. Colonies were counted individually using traditional microscopy. CFU and BFU types reported separately (CFU-GEMM colonies counted as one of each).

[5] = target: PDGFRα (Homo sapiens, UniProt P16234); test: Reaction Biology Corp kinase assay at Km-ATP (Figure 1C), PDGFRα
PDGFRα, sequence (P16234 24-1089): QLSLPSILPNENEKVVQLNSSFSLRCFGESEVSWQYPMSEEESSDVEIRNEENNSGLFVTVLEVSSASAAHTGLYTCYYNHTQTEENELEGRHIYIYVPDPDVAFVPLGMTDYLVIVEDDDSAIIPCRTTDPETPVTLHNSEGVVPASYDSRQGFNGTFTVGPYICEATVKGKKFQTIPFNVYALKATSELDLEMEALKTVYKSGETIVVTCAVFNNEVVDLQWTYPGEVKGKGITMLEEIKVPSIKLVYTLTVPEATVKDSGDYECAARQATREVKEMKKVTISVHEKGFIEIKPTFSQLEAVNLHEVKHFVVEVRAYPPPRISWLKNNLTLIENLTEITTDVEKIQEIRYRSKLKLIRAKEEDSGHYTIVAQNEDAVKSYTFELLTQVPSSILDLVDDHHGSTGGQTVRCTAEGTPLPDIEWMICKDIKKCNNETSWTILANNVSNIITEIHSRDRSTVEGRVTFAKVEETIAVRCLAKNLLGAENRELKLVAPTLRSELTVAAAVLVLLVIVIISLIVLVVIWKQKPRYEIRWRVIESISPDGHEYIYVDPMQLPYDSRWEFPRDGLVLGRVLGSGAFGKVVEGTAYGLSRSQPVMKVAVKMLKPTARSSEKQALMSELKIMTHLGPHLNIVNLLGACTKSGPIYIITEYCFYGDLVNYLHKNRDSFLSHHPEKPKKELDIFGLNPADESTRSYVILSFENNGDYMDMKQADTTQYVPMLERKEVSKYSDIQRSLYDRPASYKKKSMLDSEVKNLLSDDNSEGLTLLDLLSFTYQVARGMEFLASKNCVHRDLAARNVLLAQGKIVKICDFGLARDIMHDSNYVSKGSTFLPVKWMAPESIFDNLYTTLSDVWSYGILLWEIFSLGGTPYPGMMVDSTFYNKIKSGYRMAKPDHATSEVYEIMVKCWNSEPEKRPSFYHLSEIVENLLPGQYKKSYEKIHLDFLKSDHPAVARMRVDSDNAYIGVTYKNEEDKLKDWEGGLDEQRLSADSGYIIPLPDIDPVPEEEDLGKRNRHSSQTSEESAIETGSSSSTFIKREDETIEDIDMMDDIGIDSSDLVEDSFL

[6] = test system: normal bone marrow (BM) and stimulated peripheral blood (SPB) hematopoietic progenitors; test: Colony-forming assay, normal BM and stimulated peripheral blood; type: cell-based, human
Description: as §4, with “each). Results shown for FLT3 ITD primary blasts (Figure 3B) are a combination of leukemic blast colonies and BFU colonies.” for “each).”

[7] = test system: Ba/F3 FLT3 ITD + D835Y; test: Ba/F3 cell viability, FLT3 ITD + D835Y; type: cell-based; conditions: Mus musculus, Ba/F3, 48 hr, ± SEM
Protocol: as §1, §2, §3

[8] = test system: Ba/F3 FLT3 D835Y; test: Ba/F3 cell viability, FLT3 D835Y; type: cell-based; conditions: Mus musculus, BaF3; Ba/F3, 48 hr, ± SEM
Protocol: as §1, §2, §3

[9] = test system: Ba/F3 FLT3 D835V; test: Ba/F3 cell viability, FLT3 D835V; type: cell-based; conditions: Mus musculus, BaF3; Ba/F3, 48 hr, ± SEM
Protocol: as §1, §2, §3

IC50 [1]: 144 ± 97 nM | IC50 [3]: > 9880 nM | CSF1R/FLT3 IC50 ratio ([3]; ratio of Figure 1C IC50s): > 16,500 | IC50 [5]: 931 ± 109 nM | raw colony numbers, normal BM, BFUs ([6]; all Star 27-treated conditions): ca. 400 | raw colony numbers, normal BM, CFUs ([6]; all Star 27-treated conditions): ca. 300 | IC50 [7]: 39 ± 24 nM | IC50 [8]: 18 ± 12 nM | IC50 [9]: 19 ± 3 nM
SMILES: CC1NC(=O)c2c1c1c3ccccc3n(CCCN)c1c1[nH]c3ccccc3c21 (stereo not shown) [Star 27]
effect on FLT3/ITD-induced mpo+ myeloid cells expansion [2]: rescue of normal phenotype approaching that seen for AC220 | inhibition at 1 µM ([4]; Homo sapiens, at 1000 nM, read-out: inhibition of colonies, FLT3-D835 (ITD−) blasts): ~60% | raw colony numbers, FLT3 D835Y blasts ([4]; at 1,000 nM, ca. 120 for DMSO plates): ~50 | effect on normal hematopoietic colony formation (CFU and BFU) ([6]; normal BM and SPB donors, up to 1,000 nM): no effect on hematopoiesis up to 1,000 nM; also recorded: no significant effect up to a concentration of 1,000 nM
